Data taken from patent publication US20070213283A1, “Macrolides substituted at the 4"-position” (priority 2003, published 2007).
Counter-ions that a name gives are not always drawn. Like-named read-outs stand apart in the source and are kept apart here.

Assays:
Assay in all cases: MIC, standard broth dilution method in microtitre
Type in all cases: cell-based
[1] = tested on: erythromycin resistant strains of Streptococcus pyogenes
Protocol: (§1) Using a standard broth dilution method in microtitre, compounds were tested for antibacterial activity. The compounds in the above examples gave minimum inhibitory concentrations (MICs) less than 1 microgram per millilitre against erythromycin-sensitive and erythromycin-resistant strains of Streptococcus pneumoniae and Streptococcus pyogenes.

[2] = tested on: erythromycin resistant strains of Streptococcus pneumoniae
Protocol: as §1

H. influenzae ATCC 49247 = conditions: Haemophilus influenzae, ATCC49247
Protocol: as §1
(§2) In addition, the MIC (μg/mL) of test compounds against various organisms was determined including:
(§3) S. aureus Smith ATCC 13709, S. pneumoniae SP030, S. pyogenes 3565, E. faecalis ATCC 29212, H. influenzae ATCC 49247, M. catarrhalis ATCC 23246.

E. faecalis ATCC 29212 = conditions: Enterococcus faecalis, ATCC29212
Protocol: as §1, §2, §3

[3] = tested on: S. aureus Smith ATCC 13709; conditions: Staphylococcus aureus, ATCC13709
Protocol: as §1, §2, §3

S. pneumoniae SP030 = conditions: Streptococcus pneumoniae
Protocol: as §1, §2, §3

S. pyogenes 3565 = conditions: Streptococcus pyogenes
Protocol: as §1, §2, §3

[4] = tested on: M. catarrhalis ATCC 23246; conditions: Moraxella catarrhalis, ATCC23246
Protocol: as §1, §2, §3

[5] = H. influenzae ATCC 49247, broth dilution in microtitre, read-out: MIC

Compound	MIC [1] [µg/mL]	MIC [2] [µg/mL]	MIC (H. influenzae ATCC 49247; [5]) [µg/mL]	MIC (E. faecalis ATCC 29212) [µg/mL]	MIC [3] [µg/mL]	MIC (S. pneumoniae SP030) [µg/mL]	MIC (S. pyogenes 3565) [µg/mL]	MIC [4] [µg/mL]	MIC (H. influenzae ATCC 49247) [µg/mL]
CC[C@@H]1OC(=O)[C@H](C)[C@H](O[C@@H]2C[C@](C)(OC)[C@H](OC(=O)CCNCCOc3cc4c5c(c3)c(=O)c(C(=O)O)cn5CCC4)[C@H](C)O2)[C@@H](C)[C@H](O[C@@H]2O[C@H](C)C[C@H](N(C)C)[C@@H]2O)[C@](C)(OC)C[C@H](C)C(=O)[C@H](C)[C@@H](O)[C@]1(C)O [Example 13, 4′-O-{3-[2-(6-Carboxy-7-oxo-2,3-dihydro-1H,7H-pyrido[3,2,1-ij]quinolin-9-yloxy)ethylamino]propionyl}-6-O-methyl-erythromycin A bis trifluoroacetate salt]	≤ 0.25	≤ 0.25	–	≤ 1	≤ 1	≤ 1	≤ 1	≤ 2	≤ 2
CC[C@H]1OC(=O)[C@H](C)[C@@H](O[C@H]2C[C@@](C)(OC)[C@@H](OC(=O)CCOCCNc3cc4c(=O)c(C(=O)O)cn(C5CC5)c4cc3Cl)[C@H](C)O2)[C@H](C)[C@@H](O[C@@H]2O[C@H](C)C[C@H](N(C)C)[C@H]2O)[C@](C)(O)C[C@@H](C)CN(C)[C@H](C)[C@@H](OC)[C@]1(C)O [Example 23, 4″-O-{3-[2-(3-Carboxy-7-chloro-1-cyclopropyl-4-oxo-1,4-dihydro-6-quinolinylamino)ethoxy]propionyl}-11-O-methyl-azithromycin]	≤ 0.25	≤ 0.25	≤ 2	≤ 1	≤ 1	≤ 1	≤ 1	≤ 2	–
CC[C@@H]1OC(=O)[C@H](C)[C@H](O[C@@H]2O[C@H](C)[C@H](OC(=O)CCNCCSc3ccc4c(c3)c(=O)c(C(=O)O)cn4CC)[C@@](C)(OC)O2)[C@@H](C)[C@H](O[C@H]2O[C@@H](C)C[C@@H](N(C)C)[C@H]2O)[C@](C)(OC)C[C@H](C)C(=O)[C@@H](C)[C@@H]2NC(=O)O[C@@]12C [Example 9, 4″-O-{3-[2-(3-Carboxy-1-ethyl-4-oxo-1,4-dihydro-quinolinylsulfanyl)ethylamino]propionyl}-6-O-methyl-11-desoxy-11-(R)amino-erythromycin A11,12-carbamate bis trifluoroacetate salt]	≤ 0.25	≤ 0.25	–	≤ 1	≤ 1	≤ 1	≤ 1	≤ 2	≤ 2
CC[C@H]1OC(=O)[C@H](C)[C@@H](O[C@H]2C[C@@](C)(OC)[C@@H](OC(=O)CCOCCOc3cc4c(=O)c(C(=O)OCOC(=O)C(C)(C)C)cn(C5CC5)c4cc3Cl)[C@H](C)O2)[C@H](C)[C@@H](O[C@@H]2O[C@H](C)C[C@H](N(C)C)[C@H]2O)[C@](C)(O)C[C@@H](C)CN(C)[C@H](C)[C@@H](O)[C@]1(C)O [Example 28, 4″-O-(3-{2-[7-chloro-1-cyclopropyl-3-(2,2-dimethyl-propionyloxymethoxycarbonyl)-4-oxo-1,4-dihydro-quinolin-6-yloxy]-ethoxy}-propionyl)-azithromycin]	≤ 0.25	≤ 0.25	–	≤ 1	≤ 1	≤ 1	≤ 1	–	–
CC[C@@H]1OC(=O)[C@H](C)[C@H](O[C@@H]2C[C@](C)(OC)[C@H](OC(=O)CCNCCOc3ccc4c(c3)c(=O)c(C(=O)O)cn4CC)[C@H](C)O2)[C@@H](C)[C@H](O[C@@H]2O[C@H](C)C[C@H](N(C)C)[C@@H]2O)[C@](C)(OC)C[C@H](C)C(=O)[C@H](C)[C@@H](O)[C@]1(C)O [Example 15, 4″-O-{3-[2-(3-Carboxy-1-ethyl-4-oxo-1,4-dihydro-6-quinolinyloxy)ethylamino]propionyl}-6-O-methyl-erythromycin A monoformate salt]	≤ 0.25	≤ 0.25	–	–	–	–	–	–	–
CC[C@@H]1OC(=O)[C@H](C)[C@H](O[C@@H]2C[C@](C)(OC)[C@H](OC(=O)CCNCCOc3ccc4c(=O)c(C(=O)O)cn(CC)c4c3)[C@H](C)O2)[C@@H](C)[C@H](O[C@@H]2O[C@H](C)C[C@H](N(C)C)[C@@H]2O)[C@](C)(OC)C[C@H](C)C(=O)[C@H](C)[C@@H](O)[C@]1(C)O [Example 17, 4″-O-{3-[2-(3-Carboxy-1-ethyl-4-oxo-1,4-dihydro-7-quinolinyloxy)ethylamino]propionyl}-6-O-methyl-erythromycin A]	≤ 0.25	≤ 0.25	≤ 2	≤ 1	≤ 1	≤ 1	≤ 1	≤ 2	–
CC[C@@H]1OC(=O)[C@H](C)[C@H](O[C@@H]2C[C@](C)(OC)[C@H](OC(=O)CCNCCSc3cnc4c(c3)c(=O)c(C(=O)O)cn4CC)[C@H](C)O2)[C@@H](C)[C@H](O[C@@H]2O[C@H](C)C[C@H](N(C)C)[C@@H]2O)[C@@](C)(OC)C[C@H](C)C(=O)[C@H](C)[C@@H](O)[C@]1(C)O [Example 5, 4″-O-{3-[2-(3-Carboxy-1-ethyl-4-oxo-1,4-dihydro-[1,8]naphthyridin-6-ylsulfanyl)ethylamino]propionyl}-6-O-methyl-erythromycin A monoformate salt]	≤ 0.25	≤ 0.25	–	≤ 1	≤ 1	≤ 1	≤ 1	–	–

More lines, main results first:

MIC [1] [µg/mL]	MIC [2] [µg/mL]	MIC (H. influenzae ATCC 49247; [5]) [µg/mL]	MIC (E. faecalis ATCC 29212) [µg/mL]	MIC [3] [µg/mL]	MIC (S. pneumoniae SP030) [µg/mL]	MIC (S. pyogenes 3565) [µg/mL]	MIC [4] [µg/mL]	Compound	MIC (H. influenzae ATCC 49247) [µg/mL]
≤ 0.25	≤ 0.25	≤ 2	≤ 1	≤ 1	≤ 1	≤ 1	≤ 2	CC[C@H]1OC(=O)[C@H](C)[C@@H](O[C@H]2C[C@@](C)(OC)[C@@H](OC(=O)CCOCCNc3cc4c(=O)c(C(=O)O)cn(C5CC5)c4cc3Cl)[C@H](C)O2)[C@@H](C)[C@@H](O[C@@H]2O[C@H](C)C[C@H](N(C)C)[C@H]2O)[C@](C)(O)C[C@@H](C)CN(C)[C@H](C)[C@@H](O)[C@]1(C)O [Example 18, 4″-O-{3-[2-(3-Carboxy-7-chloro-1-cyclopropyl-4-oxo-1,4-dihydro-4-quinolinylamino)ethoxy]propionyl}-azithromycin]	–
≤ 0.25	≤ 0.25	–	≤ 1	≤ 1	≤ 1	≤ 1	–	CC[C@@H]1OC(=O)[C@H](C)[C@H](O[C@@H]2C[C@](C)(O)[C@H](OC(=O)CCNCCSc3ccc4c(c3)c(=O)c(C(=O)OC)cn4CC)[C@H](C)O2)[C@@H](C)[C@H](O[C@@H]2O[C@H](C)C[C@H](N(C)C)[C@@H]2O)[C@](C)(OC)C[C@H](C)C(=O)[C@H](C)[C@@H](O)[C@]1(C)O [Example 7, 4″-O-{3-[2-(3-Carboxyl-1-ethyl-4-oxo-1,4-dihydro-6-quinolinylsulfanyl)ethylamino]propionyl}-6-O-methyl-erythromycin A methyl ester]	–
≤ 0.25	≤ 0.25	≤ 2	≤ 1	≤ 1	≤ 1	≤ 1	≤ 2	CC[C@H]1OC(=O)[C@H](C)[C@@H](O[C@H]2C[C@@](C)(OC)[C@@H](OC(=O)CCOCCOc3cc4c(=O)c(C(=O)O)cn(C5CC5)c4cc3Cl)[C@H](C)O2)[C@H](C)[C@@H](O[C@@H]2O[C@H](C)C[C@H](N(C)C)[C@H]2O)[C@](C)(O)C[C@@H](C)CN(C)[C@H](C)[C@@H](O)[C@]1(C)O [Example 27, 4″-O-{3-[2-(3-Carboxy-7-chloro-1-cyclopropyl-4-oxo-1,4-dihydro-quinolin-6-yloxy)ethoxy]-propionyl}-azithromycin]	–
≤ 0.25	≤ 0.25	≤ 2	≤ 1	≤ 1	≤ 1	≤ 1	≤ 2	CC[C@H]1OC(=O)[C@H](C)[C@@H](O[C@H]2C[C@@](C)(OC)[C@@H](OC(=O)CCOCCOc3ccc4c(c3)c(=O)c(C(=O)O)cn4C3CC3)[C@H](C)O2)[C@H](C)[C@@H](O[C@@H]2O[C@H](C)C[C@H](N(C)C)[C@@H]2O)[C@](C)(O)C[C@@H](C)CN(C)[C@H](C)[C@@H](O)[C@]1(C)O [Example 29, 4″-O-{3-[2-(3-Carboxy-1-cyclopropyl-4-oxo-1,4-dihydro-quinolin-6-yloxy)-ethoxy]-propionyl}-azithromycin]	–
≤ 0.25	≤ 0.25	≤ 2	≤ 1	≤ 1	≤ 1	≤ 1	≤ 2	CC[C@H]1OC(=O)[C@H](C)[C@@H](O[C@H]2C[C@@](C)(OC)[C@@H](OC(=O)CCOCCNc3ccc4c(c3)c(=O)c(C(=O)O)cn4C3CC3)[C@H](C)O2)[C@@H](C)[C@@H](O[C@@H]2O[C@H](C)C[C@H](N(C)C)[C@H]2O)[C@](C)(O)C[C@@H](C)CN(C)[C@H](C)[C@@H](O)[C@]1(C)O [Example 19, 4″-O-{3-[2-(3-Carboxy-1-cyclopropyl-4-oxo-1,4-dihydro-6-quinolinylamino)ethoxy]propionyl}-azithromycin]	–
